Consider 1 molecule from PMC9330593, “The Structural Flexibility of PR-10 Food Allergens” (International Journal of Molecular Sciences, 2022).

The experiment addresses T1, Ara h 8.0101 (Arachis hypogaea, UniProt Q6VT83).
T1 construct: recombinant, 15N-labelled; N-terminal glycine (initiator Met apparently absent)
T1 sequence (Q6VT83 2-157): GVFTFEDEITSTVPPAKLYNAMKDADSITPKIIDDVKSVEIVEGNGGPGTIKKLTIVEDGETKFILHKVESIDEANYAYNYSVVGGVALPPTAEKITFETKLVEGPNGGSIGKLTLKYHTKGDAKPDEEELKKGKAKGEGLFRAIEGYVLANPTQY
Nature of the experiment: 1H-15N HSQC NMR titration. It is filed as binding.

In general, Kd refers to the free concentration of one partner at which half of the binding sites on the other are occupied at equilibrium, for simple one-to-one binding. Low readings indicate tighter binding, high ones weaker binding.

As for `Oc1cc(O)c2c(c1)O[C@H](c1ccc(O)c(O)c1)[C@H](O)C2` [(-)-epicatechin], the affinity, expressed as Kd, was 760 ± 370 µM.
